In patent US4528289A, “Corynantheine derivates, processes for their preparation, and their use” (Dr. Willmar Schwabe GmbH & Co., priority 1982, dated 1985):
Structures can show the parent of a compound that is named as a salt.

Tests used:
[1] = stability towards acids and other agents; type: physicochemical
[2] = system: heart rate of spontaneously hypertonic rats; assay: chronological course of heart rate of spontaneously hypertonic rats; type: in vivo, rat; set-up: heart rate at time t: unit not given here
Source text: (§1) The blood pressure-lowering action of the compound THCN according to the present invention and of DHCN was investigated on spontaneously hypertonic rats after oral administration and compared with that of ajmalicine. The method thereby used for the measurement of the systolic blood pressure and of the heart rate on rats is described in Arzneimittel-Forschung, 18, 1285-1287/1968. Before commencement of the experiments, the animals were familiarised with the measurement procedure.
(§2) In a further series of experiments, the chronological course of the blood pressure lowering was investigated. For this purpose, spontaneously hypertonic rats were treated with 10 mg./kg. DHCN and with 5 or 10 mg./kg. THCN per os and in each case 6 or 12 animals of the treated group were measured at definite times after the treatment.

[3] = system: systolic blood pressure of spontaneously hypertonic rats; assay: systolic blood pressure of spontaneously hypertonic rats after oral administration; type: in vivo, rat; conditions: 2 h, tetrahydrocorynantheine
Source text: as §1
(§3) In a first series of experiments, the systolic blood pressure and the heart rate were investigated 2 hours after the oral administration of the test substances in the form of their hydrochlorides. The substances were suspended in 0.2% agar and administered in a volume of 10 ml./kg. It follows therefrom that all three substances lower the blood pressure in a dosage-dependent manner.

mice [4] = assay: acute toxicity, LD50 (Litchfield and Wilcoxon) on mice; type: in vivo; conditions: i.v., i.p. and oral LD50, mice
Source text: (§4) The toxicity of the compounds according to the present invention can be seen from the LD50 values given in the following Table 8 for intravenous, intraperitoneal and oral administration.

[5] = as above; type: in vivo; conditions: mouse, in vivo, mice
Source text: as §4

mice [6] = assay: sedating action on mice after oral administration; type: in vivo; conditions: 5 to 20 mg/kg, dosage-dependent
[7] = system: heart rate of spontaneously hypertonic rats; assay: heart rate of spontaneously hypertonic rats after oral administration; type: in vivo, rat; conditions: 2 h, tetrahydrocorynantheine
Source text: as §1, §3

[8] = system: stereotypy brought about by apomorphine; assay: potentiation of apomorphine stereotypy in mice; type: in vivo; conditions: oral, 10 to 20 mg/kg
[9] = system: systolic blood pressure of spontaneously hypertonic rats; assay: regression analysis of the dosage-activity relationship (blood pressure lowering); type: in vivo, rat; conditions: compared with DHCN and ajmalicine
Source text: as §1, §3
The calculation of the regression lines gives, in all three cases, a statistically significant correlation between dosage and degree of blood pressure lowering (cf. the following Table 4). For ajmalicine, in the case of a dosage of 56 mg./kg., the lowering reached a maximum of about 18%, which could not be exceeded with dosages of up to 100 mg./kg.

CHCl3 arrhythmia = assay: inhibition of CHCl3 arrhythmia on mice, i.p.; type: in vivo
Source text: (§5) The antiarrhythmic effectiveness of DHCN and THCN was investigated on mice and rats.

[10] = system: aconitine-induced arrythmias; assay: protection against aconitine-induced arrhythmias in urethane-narcotised rats, i.v.; type: in vivo; conditions: 2 to 5 mg/kg (THCN)
Source text: as §5

[11] = system: systolic blood pressure of spontaneously hypertonic rats; assay: chronological course of blood pressure decrease in spontaneously hypertonic rats; type: in vivo, rat
Source text: as §1, §2

[12] = system: "head twitch" syndrome caused by 5-hydroxytryptophane; assay: inhibition of "head twitch" syndrome caused by 5-hydroxytryptophane on mice; type: in vivo; conditions: concluded from head twitch test
mice [13] = assay: body temperature-lowering action on mice after oral administration; type: in vivo; conditions: 5 to 20 mg/kg, dosage-dependent
[14] = hygroscopicity of crystals; type: physicochemical; conditions: crystals dried at 110° C. for 8 hours at oil pump vacuum
Description: For analysis, the product is again recrystallised from methanol by the addition of diethyl ether. […] 187° C. (decomp. from 158° C., subl. of the base); [α]D^20 =-26° (c=2 in methanol).

CC[C@H]1CN2CCc3c([nH]c4ccccc34)[C@@H]2C[C@@H]1C(COC)C(=O)OC (stereo partly drawn) [THCN, tetrahydrocorynantheine]
stability compared with dihydrocorynantheine (in words) [1]: substantially more stable than dihydrocorynantheine
stability towards acids and other agents (in words) [1]: astonishingly stable towards acids and other agents
heart rate at time t ([2]; 5 mg/kg p.o., 10 min.): 504
heart rate at time t ([2]; 5 mg/kg p.o., 20 min.): 492
heart rate at time t ([2]; 5 mg/kg p.o., 40 min.): 499
heart rate at time t ([2]; 5 mg/kg p.o., 80 min.): 503
heart rate at time t ([2]; 5 mg/kg p.o., 2 h.): 508
heart rate at time t ([2]; 5 mg/kg p.o., 4 h.): 502
heart rate at time t ([2]; 5 mg/kg p.o., 6 h.): 489
heart rate at time t ([2]; 10 mg/kg p.o., 10 min.): 519
heart rate at time t ([2]; 10 mg/kg p.o., 20 min.): 518
heart rate at time t ([2]; 10 mg/kg p.o., 40 min.): 499
heart rate at time t ([2]; 10 mg/kg p.o., 80 min.): 520
heart rate at time t ([2]; 10 mg/kg p.o., 2 h.): 519
heart rate at time t ([2]; 10 mg/kg p.o., 4 h.): 519
heart rate at time t ([2]; 10 mg/kg p.o., 6 h.): 503
heart rate change (in words) ([2]; DHCN 10 mg/kg, THCN 10 mg/kg, on the border of statistical significance): an increase is to be observed
heart rate change (in words) ([2]; THCN 5 mg/kg): does not change
systolic blood pressure, subsequent value ([3]; 5 mg/kg p.o.): 178 ± 4 mm Hg
systolic blood pressure, Δ ([3]; 5 mg/kg p.o.): -15 ± 3 mm Hg
systolic blood pressure, Δ % ([3]; 5 mg/kg p.o.): -7.7 ± 1.8%
systolic blood pressure, subsequent value ([3]; 10 mg/kg p.o.): 168 ± 5 mm Hg
systolic blood pressure, Δ ([3]; 10 mg/kg p.o.): -28 ± 6 mm Hg
systolic blood pressure, Δ % ([3]; 10 mg/kg p.o.): -14.3 ± 4.7%
systolic blood pressure, subsequent value ([3]; 18 mg/kg p.o.): 165 ± 13 mm Hg
systolic blood pressure, Δ ([3]; 18 mg/kg p.o.): -33 ± 11 mm Hg
systolic blood pressure, Δ % ([3]; 18 mg/kg p.o.): -16.5 ± 5.8%
systolic blood pressure, subsequent value ([3]; 30 mg/kg p.o.): 146 ± 5 mm Hg
systolic blood pressure, Δ ([3]; 30 mg/kg p.o.): -43 ± 5 mm Hg
systolic blood pressure, Δ % ([3]; 30 mg/kg p.o.): -21.9 ± 3.9%
systolic blood pressure, subsequent value ([3]; 40 mg/kg p.o.): 132 ± 9 mm Hg
systolic blood pressure, Δ ([3]; 40 mg/kg p.o.): -74 ± 10 mm Hg
systolic blood pressure, Δ % ([3]; 40 mg/kg p.o.): -35.7 ± 4.7%
toxicities compared (in words) (mice [4]): almost the same
LD50 ([5]; ip): 133 mg/kg
LD50 ([5]; iv): 14.1 mg/kg
LD50 ([5]; po): 283 mg/kg
sedating action (in words) (mice [6]): sedating
heart rate, subsequent value ([7]; 5 mg/kg p.o.): 508 ± 7 beats/min.
heart rate, Δ ([7]; 5 mg/kg p.o.): 6 ± 12 beats/min.
heart rate, Δ % ([7]; 5 mg/kg p.o.): 1.2 ± 7.1%
heart rate, subsequent value ([7]; 10 mg/kg p.o.): 519 ± 9 beats/min.
heart rate, Δ ([7]; 10 mg/kg p.o.): 21 ± 11 beats/min.
heart rate, Δ % ([7]; 10 mg/kg p.o.): 4.2 ± 3.3%
heart rate, subsequent value ([7]; 18 mg/kg p.o.): 495 ± 6 beats/min.
heart rate, Δ ([7]; 18 mg/kg p.o.): 13 ± 12 beats/min.
heart rate, Δ % ([7]; 18 mg/kg p.o.): 3.3 ± 2.8%
heart rate, subsequent value ([7]; 30 mg/kg p.o.): 493 ± 10 beats/min.
heart rate, Δ ([7]; 30 mg/kg p.o.): 22 ± 27 beats/min.
heart rate, Δ % ([7]; 30 mg/kg p.o.): 4.7 ± 6.6%
heart rate, subsequent value ([7]; 40 mg/kg p.o.): 472 ± 14 beats/min.
heart rate, Δ ([7]; 40 mg/kg p.o.): -1 ± 29 beats/min.
heart rate, Δ % ([7]; 40 mg/kg p.o.): 1.0 ± 6.6%
apomorphine stereotypy (in words) [8]: potentiated the stereotypy
central dopaminergic-stimulating property (in words) [8]: central dopaminergic-stimulating property
dosage activity curve (in words) [9]: steeper
strength of action (in words) ([9]; higher dosages): stronger in higher dosages
antiarrhythmic effectiveness, chloroform arrythmias (in words) (CHCl3 arrhythmia): dosage-dependently inhibited the arrythmias caused by chloroform
inhibition in % of CHCl3 arrhythmia (CHCl3 arrhythmia; 10 mg/kg): 10%
inhibition in % of CHCl3 arrhythmia (CHCl3 arrhythmia; 15 mg/kg): 60%
inhibition in % of CHCl3 arrhythmia (CHCl3 arrhythmia; 25 mg/kg): 90%
antiarrhythmic effectiveness, aconitine-induced arrythmias (in words) [10]: protects against aconitine-induced arrythmias
percentage decrease of blood pressure ([11]; 5 mg/kg p.o., 10 min.): 11.1%
percentage decrease of blood pressure ([11]; 5 mg/kg p.o., 20 min.): 13.8%
percentage decrease of blood pressure ([11]; 5 mg/kg p.o., 40 min.): 12.8%
percentage decrease of blood pressure ([11]; 5 mg/kg p.o., 80 min.): 13.8%
percentage decrease of blood pressure ([11]; 5 mg/kg p.o., 2 h.): 8.1%
percentage decrease of blood pressure ([11]; 5 mg/kg p.o., 4 h.): -0.2%
percentage decrease of blood pressure ([11]; 5 mg/kg p.o., 6 h.): 4.0%
percentage decrease of blood pressure ([11]; 10 mg/kg p.o., 10 min.): 13.5%
percentage decrease of blood pressure ([11]; 10 mg/kg p.o., 20 min.): 29.3%
percentage decrease of blood pressure ([11]; 10 mg/kg p.o., 40 min.): 27.8%
percentage decrease of blood pressure ([11]; 10 mg/kg p.o., 80 min.): 23.0%
percentage decrease of blood pressure ([11]; 10 mg/kg p.o., 2 h.): 14.4%
percentage decrease of blood pressure ([11]; 10 mg/kg p.o., 4 h.): 14.0%
percentage decrease of blood pressure ([11]; 10 mg/kg p.o., 6 h.): 15.9%
blood pressure lowering action compared (in words) ([11]; DHCN 10 mg/kg vs THCN 5 mg/kg p.o.): the same action
time of maximum blood pressure lowering ([11]; DHCN 10 mg/kg, THCN 5 mg/kg p.o.): about 40 minutes
blood pressure after the maximum (in words) ([11]; DHCN 10 mg/kg, THCN 5 mg/kg p.o., after about 40 minutes): the blood pressure again increases to the initial value
blood pressure lowering action (in words) ([11]; THCN 10 mg/kg p.o.): a stronger action
time of maximum blood pressure lowering ([11]; THCN 10 mg/kg p.o.): 20 min
maximum blood pressure lowering ([11]; THCN 10 mg/kg p.o., 20 minutes after administration): 30%
blood pressure after 6 hours (in words) ([11]; THCN 10 mg/kg p.o., 6 hours): still distinctly below the initial value
blood pressure-lowering action compared with ajmalicine (in words) ([11]; oral administration): clearly stronger and longer-lasting blood pressure-lowering action
central antiserotoninergic action (in words) [12]: central antiserotoninergic action
body temperature-lowering action (in words) (mice [13]): body temperature-lowering action

CC[C@H]1CN2CCc3c([nH]c4ccccc34)[C@@H]2C[C@@H]1C(COC)C(=O)OC (stereo partly drawn) [Example 9, tetrahydrocorynantheine hydrochloride]
hygroscopicity (in words) [14]: slightly hygroscopic
